Measured values as given in patent publication US9988632B2, “Composition including pint gene expression inhibitor or pint activity inhibitor and use thereof” (Samsung Electronics Co., Ltd., priority 2015, dated 2018).

Key:
Assay type in all cases: cell-based, human
[1] = system: PINT lincRNA; assay: PINT lincRNA levels (qPCR) in young cells in the presence of DNA damage inducers; conditions: 10 μM, 24 hours, level in absence of DNA damage inducers taken as 1
Protocol: PINT lincRNA levels were measured according to DNA damage in cells. The cells were young cells HDF(M4) and HDF(neonatal) derived from humans, explained in section 1.
As a negative control, the cells were treated with dimethyl sulfoxide (DMSO) (Sigma-Aldrich). Thereafter, mRNAs were isolated from all the cells, and then quantitative polymerase chain reaction (qPCR) was performed using nucleotide sequences of SEQ ID NOS: 22 and 24 as PINT primers to measure PINT levels.

[2] = system: PINT; assay: PINT level (qPCR) after siRNA transfection; conditions: HDF(neonatal) cells, 25 nM siRNA, 72 hours, vs scramble siRNA
From the text: In detail, the young cells were human dermal fibroblast (HDF) (hereinafter, referred to as ‘HDF cell’ or ‘HDF (neonatal)’) obtained from neonatal foreskin, human dermal fibroblast (HDF) M4 cell (hereinafter, referred to as ‘HDF M4 cell’ or ‘HDF (M4)’) obtained from the foreskin of a child, and human mammary epithelial cell (HMEC) (hereinafter, referred to as ‘HMEC cell’ or ‘HMEC’) obtained from ATCC® PCS-600-010™. The young cells for the purposes of the experiments were cells of the above cell lines that were passaged 10 times or less and have a doubling time of about 1 day. The senescent cells were cells of the same cell lines that were passaged 33 to 50 times and have a doubling time of about 14 days or longer. The young cells and senescent cells were inoculated in 6-well plates at a density of 50,000 cells/well and 20,000 cells/well, respectively. The inoculated cells were cultured in 2 ml of a DMEM medium containing 10% (v/v) FBS, and 1× penicillin/streptomycin and high concentrations of glucose, glutamine, and pyruvate under conditions of 37° C. and 5% CO2 for 3 days.
mRNAs were isolated from all the cells thus prepared, and then quantitative polymerase chain reaction (qPCR) was performed using nucleotide sequences of SEQ ID NOS: 22 and 23 as PINT primers to measure PINT levels.
To inhibit PINT gene expression and/or PINT activity, the following 5 siRNAs including sequences complementary to PINT gene of SEQ ID NO: 1 were designed and synthesized (Cosmogenetech, Korea).
The siRNAs includes nucleotide sequences of SEQ ID NO: 12 and SEQ ID NO: 13; SEQ ID NO: 14 and SEQ ID NO: 15; SEQ ID NO: 16 and SEQ ID NO: 17; SEQ ID NO: 18 and SEQ ID NO: 19; and SEQ ID NO: 20 and SEQ ID NO: 21, respectively and hereinbelow, these siRNAs are called siPINT-1, siPINT-2, siPINT-3, siPINT-4, and siPINT-5, respectively.
It was examined whether the siRNAs decrease PINT levels in senescent cells. First, HDF(neonatal) young cells being passaged 9 times and having a doubling time of 1 day and HDF(neonatal) senescent cells being passaged 49 times and having a doubling time of 14 days, which were prepared in section 1, were transfected with 25 nM siRNA. The cells were cultured for 72 hours under the same conditions as in section 1, except that each siRNA was mixed with 1 μL of a Dharmacon transfection reagent (Dharmacon), and added to media. A negative control group was prepared in the same manner, except that scramble siRNA was added instead of the siRNAs. After culturing, PINT levels in the cells were measured in the same manner as in section 1. As a result, when siPINT-1, siPINT-2, siPINT-3, siPINT-4, and siPINT-5 were used, the PINT levels were decreased by 36, 0, 67, 50, and 0%, respectively, as compared to the control group.

[3] = system: HDF(neonatal) senescent cells; assay: DNA comet assay in siRNA-introduced cells; conditions: 25 nM siRNA, 72 hours; for tail moment: control senescent cells 2.86, young cells 0.52
Protocol: (§1) HDF(neonatal) young cells being passaged 9 times and having a doubling time of 1 day and HDF(neonatal) senescent cells being passaged 49 times and having a doubling time of 14 days, which were prepared in section 1, were cultured for 72 hours under the same conditions as in section 1, except that each 25 nM of siPINT-3 and siPINT-4 was mixed with 1 μL of a Dharmacon transfection reagent (Dharmacon) and added to media. A negative control group was prepared in the same manner, except that scramble siRNA (hereinafter, also called ‘siCTRL’) was added instead of the siRNAs.
Further, DNAs were isolated from the same cells, followed by DNA comet assay. This method is performed by detecting DNA strand break in cells, based on gel electrophoresis. […] After staining a slide with SYBR Green, a length of a tail of DNA fragment was measured under a fluorescence microscope to examine DNA damage.

[4] = system: HDF(neonatal) senescent cells; assay: Immunoblotting of phosphorylated H2AX (gamma-H2AX) in siRNA-introduced cells; conditions: HDF(neonatal) senescent cells vs young cells, 25 nM siRNA, 72 hours
Protocol: as §1
After culturing, proteins were isolated from siRNA-introduced cells, and then the isolated proteins were subjected to immunoblotting using anti-GAPDH and anti-phosphorylated-H2AX. H2AX becomes phosphorylated on serine 139 as a reaction on DNA Double-strand breaks (DSB), and is also called gamma-H2AX. Gamma-H2AX is an indicator of DNA damage.

[5] = system: HDF(neonatal) young and senescent cells; assay: Selective death of senescent cells by inhibition of PINT expression (cell number after culturing); conditions: siRNA transfection, cultured 14 days
Protocol: HDF(neonatal) young cells being passaged 9 times and having a doubling time of 1 day and HDF(neonatal) senescent cells being passaged 49 times and having a doubling time of 14 days, which were prepared in section 1, were transfected with each of siPINT-1, siPINT-2, siPINT-3, siPINT-4, and siPINT-5 in the same manner as in section 3.2, and further cultured in wells of 6-well plates for 14 days under the same conditions as in section 1. A negative control group was prepared in the same manner, except that scramble siRNA (hereinafter, also called ‘siCTR’) was added instead of the siRNAs.
In FIG. 5, siCTR represents control siRNA, and siPINT represents siPINT-3 among the five used siPINTs. […] However, there was little change in the number of young cells by inhibition of PINT lincRNA expression.

Compound	PINT levels decreased as compared to the control group [2]	tail moment [3]	gamma-H2AX levels (indicator of DNA damage) [4]	further results
C[C@@]1(CO)[C@H](O)CC[C@@]2(C)[C@H]1CC[C@H]1C[C@@H]3C[C@@]12CC[C@]3(O)CO [aphidicolin]	–	–	–	relative PINT level ([1]; HDF(M4) young cells): 1.95; relative PINT level ([1]; HDF(neonatal) young cells): 2.72
siPINT-1: siRNA complementary to PINT gene, nucleotide sequences of SEQ ID NO: 12 and SEQ ID NO: 13 (chain 1 AAGAAAUACGCAGAACUGAUUCCUG; chain 2 CAGGAAUCAGUUCUGCGUAUUUCUU; listed as RNA, chemistry not given here)	36%	–	–	–
siPINT-2: siRNA complementary to PINT gene, nucleotide sequences of SEQ ID NO: 14 and SEQ ID NO: 15 (chain 1 UGGGAUAAUUUGCCAUCUGGAGUUU; chain 2 AAACUCCAGAUGGCAAAUUAUCCCA; listed as RNA, chemistry not given here)	0%	–	–	–
siPINT-3: siRNA complementary to PINT gene, nucleotide sequences of SEQ ID NO: 16 and SEQ ID NO: 17 (chain 1 AUGUAUCAAAUGCCUGGUUCUAUUU; chain 2 AAAUAGAACCAGGCAUUUGAUACAU; listed as RNA, chemistry not given here)	67%	3.68	specifically increased	DNA damage (comet tails, photograph) compared to senescent cells without siPINT introduction [3]: remarkably increased DNA damage; number of senescent cells compared to the negative control group ([5]; HDF(neonatal) senescent cells): remarkably decreased; change in the number of young cells ([5]; HDF(neonatal) young cells): little change
siPINT-4: siRNA complementary to PINT gene, nucleotide sequences of SEQ ID NO: 18 and SEQ ID NO: 19 (chain 1 AAGUAGGAGCCACGAAAUGUCAUUU; chain 2 AAAUGACAUUUCGUGGCUCCUACUU; listed as RNA, chemistry not given here)	50%	5.58	specifically increased	–
siPINT-5: siRNA complementary to PINT gene, nucleotide sequences of SEQ ID NO: 20 and SEQ ID NO: 21 (chain 1 AGCCAGGAAGAGGGACUGGAACCAU; chain 2 AUGGUUCCAGUCCCUCUUCCUGGCU; listed as RNA, chemistry not given here)	0%	–	–	–
